Results: patent publication US20260109707A1, “HETEROBIFUNCTIONAL COMPOUNDS AND METHODS OF TREATING DISEASE” (Halda Therapeutics OpCo. Inc., priority 2022, published 2026)

How the values were obtained:
[1] = system: T-Rex 293 cell line SC3 cells lacking increased expression of androgen receptor protein; experiment: Cellular growth inhibition assay, T-Rex 293 SC3 cells without doxycycline (CellTiter-Glo, 72 hours); format: cell-based; details: 72 h, T-Rex 293 cell line SC3 cells not exposed to doxycycline (lacking increased androgen receptor expression)
Procedure, shortened: (§1)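 Doxycycline (10 ng/mL) was either included or omitted to toggle wild-type androgen receptor expression in SC3 cells, a T-Rex 293 clone, grown in stripped-serum, phenol red-free medium. After 72 hours with compound, viable cells were quantified by CellTiter-Glo 2.0.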

[2] = Cellular growth inhibition assay, T-Rex 293 SC cells with doxycycline (CellTiter-Glo, 72 hours); format: cell-based; details: T-Rex 293 SC cells with doxycycline (increased progesterone receptor isoform B)
Description: (§2) The following types of cells were prepared for this experiment: (i) a T-Rex 293 cell line having increased expression of progesterone receptor isoform B protein due to exposure to doxycycline and (ii) a T-Rex 293 cell line lacking increased expression of progesterone receptor isoform B protein. Ability of the test compounds to inhibit proliferation of the foregoing cell types was evaluated according to the procedures set forth below.
(§3) The doxycycline-inducible progesterone receptor isoform B protein expressing cell line was established using the following protocol: T-Rex 293 cells were purchased from Invitrogen (Cat #R71007) and transfected using Lipofectamine 2000 with the wild-type progesterone receptor B protein sequence cloned into the pcDNA4/TO vector. Transfected cells were selected using 400 μg/mL Zeocin (Invitrogen Cat #R25001). Following selection, single clones were raised and maintained in Dulbecco's Modified Eagle Medium (DMEM) supplemented with 10% w/w Tetracycline-free fetal bovine serum (FBS) and 250 μg/mL Zeocin. Clones were analyzed for expression of progesterone receptor isoform B protein in the presence and absence of 10 ng/mL doxycycline (Sigma Cat #D9891), and a single doxycycline-inducible clone (hereinafter “SC”) was selected for use in downstream assays.
(§4) The SC cells were seeded on poly-D-lysine coated, black clear-bottom 384-well plates at 2500/well, in 25 μL Phenol Red Free Dulbecco's Modified Eagle Medium (DMEM) supplemented with 10% w/w charcoal-dextran treated fetal bovine serum (FBS) and 1% w/w pen-strep, with or without 10 ng/mL doxycycline. Pen-Strep is a commercially available mixture of penicillin G and streptomycin, which is used in mammalian cell culture media to prevent bacterial contamination. Phenol Red Free Dulbecco's Modified Eagle Medium (DMEM) supplemented with 10% w/w charcoal-dextran treated fetal bovine serum (FBS) and 1% w/w pen-strep, with or without 10 ng/mL doxycycline is herein referred to as Treatment Medium. Following seeding of cells in the plates, the plates were spun at 300×g for 30 seconds, then equilibrated to room temperature for 30 minutes, and then deposited in a humidified tissue culture incubator maintained at 37° C. with 5% CO2.
(§5) At 24 hours after seeding of the cells, dilutions of test compound were prepared in DMSO and dissolved in Treatment Medium, to achieve a final DMSO concentration of 0.5% w/w, thereby providing the Test Compound Solution. A 25 μL aliquot of the Test Compound Solution was added to cells in the well plates. An equal volume of a solution containing DMSO and Treatment Medium was used as a negative control. Following treatment of cells with Test Compound Solution or said equal volume of a solution containing DMSO and Treatment Medium, the plates were spun at 300×g for 30 seconds, and then left in an incubator for 72 hours.
(§6) At the end of the treatment duration, cell viability was quantified with CellTiter-Glo 2.0 reagent (Promega Cat #G9243). For this purpose, plates were equilibrated to room temperature for 30 minutes, and then 25 μL of CellTiter-Glo 2.0 reagent was added to cells in the plate wells. Plates were then agitated on a shaker for two minutes at 500 rpm and subsequently incubated at room temperature for 10 minutes. Following incubation, the plates were spun at 3000×g for 30 seconds, then sealed with an optical adhesive cover, and luminescence readings were measured with an EnVision Plate Reader (Perkin Elmer).
(§7) Data was normalized using zero luminescence for baseline. A four-parameter non-linear regression curve fit was applied to dose-response data in GraphPad Prism data analysis software to determine the half-maximal growth inhibitory concentration (GI50) for each test compound.

[3] = system: T-Rex 293 cell line SC3 cells having increased expression of androgen receptor protein due to exposure to doxycycline; experiment: Cellular growth inhibition assay, T-Rex 293 SC3 cells with doxycycline (CellTiter-Glo, 72 hours); format: cell-based; details: 72 h, T-Rex 293 SC3 cells with increased androgen receptor expression due to doxycycline (10 ng/mL)
Procedure, shortened: as §1

T47D cells = experiment: Cellular growth inhibition assay for T47D cells (CellTiter-Glo, 72 hours); format: cell-based, human; details: Homo sapiens, T47D, 72 h, 72 hours treatment
Procedure, shortened: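 Cells are plated at 3000/well and allowed 24 h before treatment. Test compound in medium containing 0.5% DMSO is then added, with DMSO-only wells as negative control, and plates are incubated 72 h at 37 °C. ATP luminescence (CellTiter-Glo 2.0) is then fitted to four parameters to derive GI50.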

[4] = system: T-Rex 293 cell line SC cells lacking increased expression of progesterone receptor isoform B protein; experiment: Cellular growth inhibition assay, T-Rex 293 SC cells without doxycycline (CellTiter-Glo, 72 hours); format: cell-based; details: T-Rex 293 SC cells not exposed to doxycycline
Description: as §2, §3, §4, §5, §6, §7

VCaP cells = experiment: Cellular growth inhibition assay for VCaP cells (CellTiter-Glo, 72 hours); format: cell-based, human; details: Homo sapiens, VCaP, 72 h
Procedure, shortened: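 Luminescent viability signal after 72 h of compound exposure gave GI50 values by four-parameter nonlinear regression. Compounds were added in 0.5% DMSO to cells plated 24 h earlier at 5000/well in DMEM containing 10% FBS.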

SMILES | GI50 (T47D cells) | GI50 (VCaP cells) | GI50 [1] | GI50 [2] | GI50 [3] | GI50 [4]
Cc1sc2c(c1C)C(c1ccc(CCCN3[C@@H](C)CN(c4ccc(C(=O)N[C@H]5CC[C@H](Oc6ccc(C#N)c(Cl)c6)CC5)nn4)C[C@@H]3C)cc1)=N[C@@H](Cc1ncco1)c1nnc(C)n1-2 [I-130] | < 500 nM | < 500 nM | < 500 nM | < 500 nM | < 500 nM | < 500 nM
CCNC(=O)C[C@@H]1N=C(c2ccc(C3CCC(OC4CCN(c5ccc(C(=O)N[C@H]6CC[C@H](Oc7ccc(C#N)c(Cl)c7)CC6)nn5)CC4)C3)cc2)c2c(sc(C)c2C)-n2c(C)nnc21 (some centres unmarked) [I-67] | < 500 nM | < 500 nM | < 500 nM | < 500 nM | < 500 nM | < 500 nM
CCNC(=O)C[C@@H]1N=C(c2ccc(OC3CCN(c4ccc(C(=O)N[C@H]5CC[C@H](Oc6ccc(C#N)c(Cl)c6)CC5)nn4)CC3)cc2)c2c(sc(C)c2C)-n2c(C)nnc21 [I-26] | < 500 nM | < 500 nM | 500 to 1500 nM | < 500 nM | < 500 nM | < 500 nM
Cc1sc2c(c1C)C(c1ccc(CCCN3[C@H](C)CN(c4ccc(C(=O)N[C@H]5CC[C@H](Oc6ccc(C#N)c(Cl)c6)CC5)nn4)C[C@@H]3C)cc1)=N[C@@H](Cc1ncco1)c1nnc(C)n1-2 [I-129] | < 500 nM | < 500 nM | < 500 nM | < 500 nM | < 500 nM | < 500 nM
Cc1sc2c(c1C)C(c1ccc(C#CCC3CCN(c4ccc(C(=O)N[C@H]5CC[C@H](Oc6ccc(C#N)c(Cl)c6)CC5)nn4)CC3)cc1)=N[C@@H](Cc1ncco1)c1nnc(C)n1-2 [I-136, N-[4-(3-chloro-4-cyano-phenoxy)cyclohexyl]-6-[4-[3-[4-[(9S)-4,5,13-trimethyl-9-(oxazol-2-ylmethyl)-3-thia-1,8,11,12-tetrazatricyclo[8.3.0.02,6]trideca-2(6),4,7,10,12-pentaen-7-yl]phenyl]prop-2-ynyl]-1-piperidyl]pyridazine-3-carboxamide] | < 500 nM | < 500 nM | < 500 nM | – | < 500 nM | –
CCNC(=O)C[C@@H]1N=C(c2ccc(CN3CC4CN(c5ccc(C(=O)N[C@H]6CC[C@H](Oc7ccc(C#N)c(Cl)c7)CC6)nn5)CC4C3)cc2)c2c(sc(C)c2C)-n2c(C)nnc21 (some centres unmarked) [I-32] | 500 to 1500 nM | < 500 nM | 1500 to 3000 nM | – | < 500 nM | –
Cc1sc2c(c1C)C(c1ccc(OC3CC4(CCN(c5ccc(C(=O)N[C@H]6CC[C@H](Oc7ccc(C#N)c(Cl)c7)CC6)nn5)CC4)C3)cc1)=N[C@H](Cc1ncco1)c1nnc(C)n1-2 [I-80] | > 3000 nM | < 500 nM | > 3000 nM | – | < 500 nM | –
Cc1sc2c(c1C)C(c1ccc(N3CC4(CCN(c5ccc(C(=O)NC6CCC(Oc7ccc(C#N)c(Cl)c7)CC6)nn5)CC4)C3)cc1)=N[C@@H](Cc1ncco1)c1nnc(C)n1-2 (stereo partly drawn) [I-132, N-[4-(3-chloro-4-cyano-phenoxy)cyclohexyl]-6-[2-[4-[(9S)-4,5,13-trimethyl-9-(oxazol-2-ylmethyl)-3-thia-1,8,11,12-tetrazatricyclo[8.3.0.02,6]trideca-2(6),4,7,10,12-pentaen-7-yl]phenyl]-2,7-diazaspiro[3.5]nonan-7-yl]pyridazine-3-carboxamide] | < 500 nM | < 500 nM | < 500 nM | – | < 500 nM | –

The next lines start with results.

GI50 (T47D cells) | GI50 (VCaP cells) | SMILES | GI50 [1] | GI50 [2] | GI50 [3] | GI50 [4]
< 500 nM | < 500 nM | Cc1sc2c(c1C)C(c1ccc(C3CC3CC3CCCN(c4ccc(C(=O)N[C@H]5CC[C@H](Oc6ccc(C#N)c(Cl)c6)CC5)nn4)C3)cc1)=N[C@@H](Cc1ncco1)c1nnc(C)n1-2 (some centres unmarked) [I-205] | < 500 nM | < 500 nM | < 500 nM | < 500 nM
500 to 1500 nM | < 500 nM | Cc1sc2c(c1C)C(c1ccc(CN3CC(=O)N4C[C@@H](c5ccc(C(=O)N[C@H]6CC[C@H](Oc7ccc(C#N)c(Cl)c7)CC6)nn5)C[C@H]4C3=O)cc1)=N[C@@H](Cc1ncco1)c1nnc(C)n1-2 [I-346] | > 3000 nM | – | < 500 nM | –
> 3000 nM | > 3000 nM | Cc1sc2c(c1C)C(c1ccc([C@H]3C[C@@H](C[C@H]4CCCN(c5ccc(C(=O)N[C@H]6CC[C@H](Oc7ccc(C#N)c(Cl)c7)CC6)nn5)C4)C3)cc1)=N[C@@H](Cc1ncco1)c1nnc(C)n1-2 [I-356] | > 3000 nM | – | > 3000 nM | –
< 500 nM | < 500 nM | Cc1sc2c(c1C)C(c1ccc(CN3CCO[C@@H](CNc4ccc(C(=O)N[C@H]5CC[C@H](Oc6ccc(C#N)c(Cl)c6)CC5)nn4)C3)cc1)=N[C@@H](Cc1ncco1)c1nnc(C)n1-2 [I-298] | < 500 nM | – | < 500 nM | –
< 500 nM | < 500 nM | Cc1sc2c(c1C)C(c1ccc(C#C[C@H]3C[C@@]4(CCCN(c5ccc(C(=O)N[C@H]6CC[C@H](Oc7ccc(C#N)c(Cl)c7)CC6)nn5)C4)C3)cc1)=N[C@@H](C)c1nnc(C)n1-2 [I-336] | < 500 nM | – | < 500 nM | –
< 500 nM | < 500 nM | Cc1sc2c(c1C)C(c1ccc([C@H]3C[C@H](C4CCN(c5ccc(C(=O)N[C@H]6CC[C@H](Oc7ccc(C#N)c(Cl)c7)CC6)nn5)CC4)C3)cc1)=N[C@@H](Cc1ncco1)c1nnc(C)n1-2 [I-373] | > 3000 nM | – | < 500 nM | –
1500 to 3000 nM | 500 to 1500 nM | Cc1sc2c(c1C)C(c1ccc(OC[C@H]3CCCN(c4ccc(C(=O)N[C@H]5CC[C@H](Oc6ccc(C#N)c(Cl)c6)CC5)nn4)C3)cc1)=N[C@@H](Cc1ncco1)c1nnc(C)n1-2 [I-219] | 1500 to 3000 nM | – | < 500 nM | –
500 to 1500 nM | < 500 nM | Cc1sc2c(c1C)C(c1ccc(C#CC3CC4(C3)CN(c3ccc(C(=O)N[C@H]5CC[C@H](Oc6ccc(C#N)c(Cl)c6)CC5)nn3)C4)cc1)=NCc1nnc(C)n1-2 [I-421] | < 500 nM | – | < 500 nM | –
< 500 nM | < 500 nM | Cc1sc2c(c1C)C(c1ccc(C#CC3CC4(C3)CN(c3ccc(C(=O)N[C@H]5CC[C@H](Oc6ccc(C#N)c(Cl)c6)CC5)nn3)C4)cn1)=N[C@H](Cc1ncco1)c1nnc(C)n1-2 [I-281] | < 500 nM | – | < 500 nM | –
> 3000 nM | > 3000 nM | Cc1sc2c(c1C)C(c1ccc([C@H]3CC[C@]4(C3)CN(c3ccc(C(=O)N[C@H]5CC[C@H](Oc6ccc(C#N)c(Cl)c6)CC5)nn3)CCO4)cc1)=N[C@@H](Cc1ncco1)c1nnc(C)n1-2 [I-363] | > 3000 nM | – | > 3000 nM | –
500 to 1500 nM | < 500 nM | Cc1sc2c(c1C)C(c1ccc(N(C)CC(=O)N3CCC(c4ccc(C(=O)N[C@H]5CC[C@H](Oc6ccc(C#N)c(Cl)c6)CC5)nn4)CC3)cc1)=N[C@H](Cc1ncco1)c1nnc(C)n1-2 [I-313] | > 3000 nM | – | < 500 nM | –
